Assay results published in publication PMC5607274, “An iterative compound screening contest method for identifying target protein inhibitors using the tyrosine-protein kinase Yes” (Scientific Reports, 2017).

Target: T1, human recombinant Yes [a.a. 2–543 (end)] (Homo sapiens, UniProt P07947)
T1 construct: human recombinant Yes [a.a; 2–543 (end)]; purchased BPS Bioscience 40488
Assay: ADP-Glo kinase assay, inhibition rates of Yes phosphorylation activity (first and second screening)
Type: biochemical
Conditions: 10 μmol L−1 compound; for First screening IR (inhibition rate): mean of n = 4 wells
Summary of the method: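 Hits from a first pass were rescreened after re-dissolution from fresh powder. The first pass reported the mean inhibition rate of quadruplicate wells per compound. Activity was that of recombinant human Yes [a.a. 2–543] kinase, read out with the ADP-Glo ADP-detection method.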

T1 sequence (P07947 2-543): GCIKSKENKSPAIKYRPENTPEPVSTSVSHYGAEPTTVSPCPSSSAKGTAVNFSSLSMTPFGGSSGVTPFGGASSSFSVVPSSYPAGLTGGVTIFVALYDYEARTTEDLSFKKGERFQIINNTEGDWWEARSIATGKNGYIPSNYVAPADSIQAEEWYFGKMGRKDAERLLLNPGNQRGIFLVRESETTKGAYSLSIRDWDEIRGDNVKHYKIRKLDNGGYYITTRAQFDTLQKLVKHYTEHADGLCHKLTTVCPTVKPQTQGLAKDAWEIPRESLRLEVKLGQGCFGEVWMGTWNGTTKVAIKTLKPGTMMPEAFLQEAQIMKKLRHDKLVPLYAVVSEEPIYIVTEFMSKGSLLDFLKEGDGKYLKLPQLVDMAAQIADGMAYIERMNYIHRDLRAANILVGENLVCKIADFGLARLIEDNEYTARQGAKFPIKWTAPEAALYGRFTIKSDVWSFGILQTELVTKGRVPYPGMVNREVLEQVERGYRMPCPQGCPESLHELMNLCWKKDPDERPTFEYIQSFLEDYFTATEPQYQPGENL

SMILES	First screening IR (inhibition rate) [%]	Second screening IR (inhibition rate) (second screening, dissolved from fresh powder, n = 4) [%]
Cn1c(=O)c2cc(C(=O)Nc3ccc(F)c(Cl)c3)sc2n(C)c1=O [Compound Z818806818]	-3	–
CCCCNS(=O)(=O)C1=CCS(=O)(=O)C1 [Compound Z1342205464]	9	–
Nc1ncnc(Nc2ccc(F)cc2)n1 [Compound Z56931701]	-4	–
CCc1cccc(NC(=O)COC(=O)Cc2cccc3ccccc23)c1 [Compound Z19678477]	7	–
Cn1cc(/C=N/Nc2ccnc3cc(Cl)ccc23)cn1 [Compound Z65478686]	2	–
CC(NC(=O)CCc1nc2ccccc2c(=O)[nH]1)c1cccc(C(F)(F)F)c1 (stereo not shown) [Compound Z28541828]	-5	–
CN(C)S(=O)(=O)c1cccc(S(=O)(=O)c2cccc(S(=O)(=O)N(C)C)c2)c1 [Compound Z56877233]	7	–
CC(C)(C(=O)N1CCN(C(=O)C2CCC(=O)NC2)CC1)c1ccccc1 (stereo not shown) [Compound Z645877938]	-20	–
O=C(Nc1ccc(N2CCOCC2)nc1)c1cc(-c2ccc(Cl)cc2)n[nH]1 [Compound Z229828974]	8	–
COc1ccc2cc(C3(C)NC(=O)N(CN4CCN(C/C=C/c5ccccc5)CC4)C3=O)ccc2c1 (stereo not shown) [Compound Z44124119]	1	–
Cc1nc(C)n(C2CCCN(C(=O)CCn3ccnc3)C2)n1 (stereo not shown) [Compound Z1139343408]	0	–
COC(=O)Cn1ncc2c(N3CCCCC3CCC(C)C)ncnc21 (stereo not shown) [Compound Z1419966801]	1	–
CC(NCc1ccnc(OC2CCOC2)c1)c1cccc(F)c1 (stereo not shown) [Compound Z1583197068]	21	–
O=C(OCCOc1ccccc1Cl)c1cn2ccccc2n1 [Compound Z16593263]	0	–
CC(=O)c1c(C)[nH]c(C(=O)NCCCn2cnc3ccccc32)c1C [Compound Z102448822]	20	–
CSc1ncccc1C(=O)OCC(=O)Nc1nc2ccccc2s1 [Compound Z56896575]	-4	–
COc1ccc(Nc2cc3c(nnn3-c3ccc(C)cc3)c3c2C(=O)c2ccccc2C3=O)cc1 [Compound Z56857974]	2	–
Cl.Fc1ccc(-c2cc(-c3ccccc3)c3cc(Cl)ccc3n2)cc1 [Compound Z48950786]	-4	–
CCN(CCO)c1nc(-c2ccccn2)nc2scc(-c3ccccc3)c12 [Compound Z31238841]	19	–
O=C(NCc1nc(-c2ccccc2)n[nH]1)c1ccc(-c2ccccc2)cc1 [Compound Z991809296]	-14	–
Oc1cccc(/C=N/Nc2ccnc3cc(Cl)ccc23)c1 [Compound Z49625857]	-13	–
Cc1cc(C)c(NC(=O)c2cn3c4c(c(N5CCN(C)CC5)c(F)cc4c2=O)OCC3C)c(C)c1 (stereo not shown) [Compound Z28129480]	9	–
Cl.Clc1ccc(-c2cc(-c3ccccc3)c3ccccc3n2)cc1 [Compound Z48951047]	8	–
CN(C(=O)c1ccc(NC(=O)C2CCCO2)cc1Cl)C1CCCCC1 (stereo not shown) [Compound Z738379554]	3	–

Second part, the compound after the results:

First screening IR (inhibition rate) [%]	Second screening IR (inhibition rate) (second screening, dissolved from fresh powder, n = 4) [%]	SMILES
-10	–	CC(C)n1ncc2c(C(=O)Nc3ccccc3)cc(-c3ccccc3)nc21 [Compound Z51820408]
11	–	COCc1nnc(-c2cccc(-c3nc(-c4cccs4)no3)c2)o1 [Compound Z1601587562]
11	–	Cc1ccc(-n2c(SCC(=O)c3ccc(NC(=O)C(C)(C)C)cc3)nnc2N2CCOCC2)cc1 [Compound Z98370329]
3	–	CCN(CC)S(=O)(=O)c1ccc(S(=O)(=O)N(C)C)cc1 [Compound Z45516173]
-5	–	Cc1nc(-c2cc(C(=O)N3CCCC(n4ccnc4)C3)co2)cs1 (stereo not shown) [Compound Z1102775620]
9	–	Cc1ccc(C(N)=O)c(OCc2ccc(C#N)cc2F)c1 [Compound Z217923492]
0	–	CCCCC(CC)CN1C(=O)/C(=C/c2c(NCCCn3ccnc3)nc3c(C)cccn3c2=O)SC1=S (stereo not shown) [Compound Z56863942]
4	–	FC(F)(F)c1ccnc(Nc2ccc3c(c2)OC2(CCCCC2)O3)n1 [Compound Z285712986]
6	–	c1ccc(-c2nc3c4ccccc4c4ccccc4c3n2-c2ccccc2)cc1 [Compound Z56798059]
1	–	Oc1cccc(CN(c2ncnc3ccsc23)C2CC2)c1 [Compound Z826941792]
7	–	CC(C)(C)C1CCC(C(=O)N2CCC(C(=O)N3CCCCCC3)CC2)CC1 (stereo not shown) [Compound Z191288442]
-3	–	CN(CC(=O)N1N=C(c2ccco2)CC1c1cccs1)Cc1nc2ccccc2c(=O)[nH]1 (stereo not shown) [Compound Z52671252]
-14	–	CCc1ccc(-c2cc(-c3ccccc3)c3c(n2)/C(=C\c2ccc(N(C)C)cc2)CCC3)cc1 [Compound Z56830412]
13	–	O=C(NCc1ccc(COCC(F)(F)F)cc1)c1ccc2nc[nH]c2c1 [Compound Z226277016]
35	-11	Cc1nn(C)c2nc(-c3ccccc3)cc(C(=O)Nc3ccc4nc(CN5CCOCC5)[nH]c4c3)c12 [Compound Z826860216]
39	–	O=C(COc1ccc(-c2cc(-c3ccccc3)c3cc(Cl)ccc3n2)cc1)NCCO [Compound Z57805545]
33	–	CC(Sc1nnc(NCc2ccc(F)cc2)s1)C(=O)N1CCCCCC1 (stereo not shown) [Compound Z151845340]
0	–	C(=C\c1ccccc1)/CN1CCN(c2ncnc3c2cnn3Cc2ccccc2)CC1 [Compound Z58287009]
1	–	Cc1ccnc(NC(=O)C2CCN(c3ccc(C#N)cc3F)CC2)c1 [Compound Z1002220042]
-1	–	CS(=O)(=O)CCS(=O)(=O)c1ccc(N)cc1 [Compound Z808591212]
-6	–	CC(=O)c1cccc(OCC(=O)Nc2nc3ccccc3[nH]2)c1 [Compound Z27665121]
0	–	Cc1nn(Cc2ccccc2)c(Cl)c1C(=O)OCc1nc(N)nc(Nc2ccccc2)n1 [Compound Z89784395]
-6	–	O=c1c2ccc3c(=O)n4c5cccc6cccc(nc4c4ccc(c2c34)c2nc3ccccc3n12)c65 [Compound Z56768422]
20	–	O=C(C1=C(O)C(=O)N(CCCn2ccnc2)C1c1ccc(Cl)cc1)c1ccco1 (stereo not shown) [Compound Z57237929]
-1	–	O=C(Nc1cc(-c2cccc([N+](=O)[O-])c2)sc1C(=O)O)c1ccc2c(c1)OCCO2 [Compound Z204342356]
31	–	COc1ccc(OC)c(-n2c(-c3ccc(C)cc3)nn(CN3CCN(c4cccc(Cl)c4)CC3)c2=S)c1 [Compound Z44116384]
7	–	O=[N+]([O-])c1cc2c(c(CN(Cc3ccccc3)S(=O)(=O)c3cccc(C(F)(F)F)c3)c1)OCOC2 [Compound Z25980301]
